# Data reported in patent US9868748B2, “Thiazolopyrrolidine inhibitors of ROR- γ” (Vitae Pharmaceuticals, Inc., priority 2013, dated 2018).
# pIC50, pKi: −log10 of the molar value. Like-named read-outs stand apart in the source and are kept apart here.
# Assays:
# [1] = molecular target: recombinant RORγ Ligand Binding Domain (LBD) protein (Homo sapiens (Human), UniProt P51449); assay: Radio-Ligand RORγ Binding Assay (Assay 1); conditions: competition with 25-hydroxy [26,27-3H]-cholesterol, SPA, read-out: RORγ Binding Ki Range*
# Outline: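 Scintillation proximity competition binding of 8.6 nM stock 25-hydroxy[26,27-3H]cholesterol to 24 nM stock 6×His-GST-tagged human RORγ LBD, in 50 mM HEPES pH 7.4 with NaCl, MgCl2, glycerol, CHAPS, β-octylglucopyranoside and DTT, room temperature. Inhibition referenced to DMSO and 10 μM T0901317; IC50 by four-parameter fit, converted to Ki using radioligand concentration and KD.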
# [2] = molecular target: full-length RORγt in Jurkat cells (Homo sapiens (Human), UniProt P51449); assay: RORγt 5xRORE Assay in Jurkat Cells (Assay 2); type: cell-based; conditions: Nanoluc luciferase reporter, 16-18 hrs
# Outline: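 Jurkat cells co-transfected with full-length RORγt expression plasmid and a 5×RORE-driven secreted Nanoluc reporter, then plated at 80,000 cells/well in phenol-red-free RPMI with 10% delipidated FBS. Compounds added at 0.1% DMSO for 16–18 h at 37 °C; supernatant luciferase read for inverse agonism.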
# [3] = Table 9, read-out: RORγt5X IC50 Range*
# [4] = Table 8, read-out: RORγt5X IC50 Range*
# recombinant RORγ Ligand Binding Domain (LBD) protein, sequence (P51449 269-508): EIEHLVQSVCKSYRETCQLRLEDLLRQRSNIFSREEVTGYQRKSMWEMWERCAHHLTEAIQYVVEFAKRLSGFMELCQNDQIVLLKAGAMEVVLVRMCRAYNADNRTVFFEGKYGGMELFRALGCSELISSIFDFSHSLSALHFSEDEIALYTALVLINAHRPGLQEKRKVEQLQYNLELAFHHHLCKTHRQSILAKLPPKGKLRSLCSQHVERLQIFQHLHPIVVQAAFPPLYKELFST
# full-length RORγt in Jurkat cells, sequence (P51449 other isoform, or with tags, fused parts or gaps): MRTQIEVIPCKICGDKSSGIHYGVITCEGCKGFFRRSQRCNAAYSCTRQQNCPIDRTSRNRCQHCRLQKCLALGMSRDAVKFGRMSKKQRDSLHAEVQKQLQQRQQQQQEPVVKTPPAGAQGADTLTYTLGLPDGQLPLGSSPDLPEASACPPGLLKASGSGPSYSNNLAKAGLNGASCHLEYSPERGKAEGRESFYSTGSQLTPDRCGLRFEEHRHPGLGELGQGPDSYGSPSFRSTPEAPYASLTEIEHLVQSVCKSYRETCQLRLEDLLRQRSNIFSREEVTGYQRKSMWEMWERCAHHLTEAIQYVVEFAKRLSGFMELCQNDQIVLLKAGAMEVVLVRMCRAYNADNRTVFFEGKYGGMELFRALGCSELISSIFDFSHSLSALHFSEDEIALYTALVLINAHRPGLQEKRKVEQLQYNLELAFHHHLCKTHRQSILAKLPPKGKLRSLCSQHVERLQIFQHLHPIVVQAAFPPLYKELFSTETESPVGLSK
pKi ([1]; Table 9),"pIC50 [2, 3]",pKi ([1]; Table 8),"pIC50 [2, 4]",Structure (SMILES)
> 7.00,> 7.00,,,CC(C)[C@H]1c2nc(C(=O)NCc3ccc(S(C)(=O)=O)cc3)sc2CN1Cc1ccc(C(F)(F)F)cc1
,,> 7.00,> 7.00,CCS(=O)(=O)c1ccc(CC(=O)Nc2nc3c(s2)CN(Cc2ccc(-c4ccn(C)c(=O)c4)cc2)[C@H]3C(C)C)nc1 [I-C7]
> 7.00,< 6.00,,,CCS(=O)(=O)c1ccc(CC(=O)Nc2nc3c(s2)CN(C[C@H]2CC[C@@H](C(F)(F)F)N(C)C2)[C@H]3C(C)C)cc1 (relative stereo)
> 7.00,< 6.00,,,"CCS(=O)(=O)c1ccc(CC(=O)Nc2nc3c(s2)CN([C@@H](C)c2ccccc2)[C@@H]3C(C)C)cc1 (single isomer, unassigned)"
> 7.00,< 6.00,,,CCS(=O)(=O)c1ccc(CC(=O)Nc2nc3c(s2)CN(Cc2ccc(OC)cc2)[C@@H]3C(C)C)cc1
,,> 7.00,> 7.00,CC(C)[C@H]1c2nc(NC(=O)Cc3ccc(S(C)(=O)=O)cc3)sc2CN1Cc1ccc(C#N)cc1Cl [I-B16]
> 7.00,6.00 to 7.00,,,CCS(=O)(=O)c1ccc(CC(=O)Nc2nc3c(s2)CN(Cc2ccc(=O)n(C)c2)[C@H]3C(C)C)cc1
> 7.00,> 7.00,,,"CC(C)[C@H]1c2nc(NC(=O)Cc3ccc(S(C)(=O)=O)cc3)sc2CN1[C@@H](C)c1ccc(C(F)(F)F)nc1 (single isomer, unassigned)"
> 7.00,< 6.00,,,CCS(=O)(=O)c1ccc(CC(=O)Nc2nc3c(s2)CN(C(C)c2ccc(F)cc2)[C@@H]3C(C)C)cc1 (some centres unmarked)
6.00 to 7.00,< 6.00,,,CC1(C)c2nc(NC(=O)Cc3ccc(S(C)(=O)=O)cc3)sc2CN1Cc1ccc(Cl)cc1
> 7.00,< 6.00,,,CCS(=O)(=O)c1ccc(CC(=O)Nc2nc3c(s2)CN(Cc2cccc(C4CC4)c2)[C@@H]3C(C)C)cc1
> 7.00,< 6.00,,,CCS(=O)(=O)c1ccc(CC(=O)Nc2nc3c(s2)CN([C@H](C)Cc2ccccc2C(F)(F)F)[C@@H]3C(C)C)cc1
,,> 7.00,< 6.00,"CCS(=O)(=O)c1ccc(CC(=O)Nc2nc3c(s2)CN(Cc2ccc(F)cc2)C3Cc2cccc(Br)c2)cc1 (centres unmarked) [I-F1, N-(4-(3-bromobenzyl)-5-(4-fluorobenzyl)-5,6-dihydro-4H-pyrrolo[3,4-d]thiazol-2-yl)-2-(4-(ethylsulfonyl)phenyl)acetamide]"
> 7.00,> 7.00,,,CC(C)[C@H]1c2nc(NC(=O)Cc3ccc(S(C)(=O)=O)cc3)sc2CN1Cc1cnc(C(F)(F)F)nc1
,,> 7.00,> 7.00,CCS(=O)(=O)c1ccc(CC(=O)Nc2nc3c(s2)CN(Cc2ccc(C(F)(F)F)nc2C)[C@H]3C(C)C)cc1 [I-A21]
,,> 7.00,> 7.00,CCS(=O)(=O)c1ccc(CC(=O)Nc2nc3c(s2)CN(Cc2ccc(C#N)c(C)n2)[C@H]3C(C)C)cc1 [I-A50]
> 7.00,< 6.00,,,CCOC(=O)c1cnc(N2Cc3sc(NC(=O)Cc4ccc(S(=O)(=O)CC)cc4)nc3[C@]2(C)C(C)C)nc1C(F)(F)F
,,> 7.00,> 7.00,CCS(=O)(=O)c1ccc(CC(=O)Nc2nc3c(s2)CN(Cc2ccc(C#N)cn2)[C@H]3C(C)C)cc1 [I-A5]
> 7.00,< 6.00,,,CCS(=O)(=O)c1ccc(CC(=O)Nc2nc3c(s2)CN(Cc2ccc(F)cc2F)[C@H]3C(C)C)cc1
,,> 7.00,> 7.00,CCS(=O)(=O)c1ccc(CC(=O)Nc2nc3c(s2)CN([C@H](C)c2ncc(Cl)cc2F)[C@H]3C(C)C)cc1 [I-A53]
> 7.00,< 6.00,,,CCS(=O)(=O)c1ccc(CC(=O)Nc2nc3c(s2)CN(CC2CCOCC2)[C@H]3C(C)C)cc1
> 7.00,< 6.00,,,"CCS(=O)(=O)c1ccc(CC(=O)Nc2nc3c(s2)CN(C[C@@H]2CC[C@H](C(F)(F)F)O2)[C@H]3C(C)C)nc1 (single isomer, unassigned)"
6.00 to 7.00,> 7.00,,,CC[C@H]1c2nc(NC(=O)Cc3ccc(S(=O)(=O)CC)cc3)sc2CN1Cc1ncc(Cl)cn1
,,> 7.00,> 7.00,CCS(=O)(=O)c1ccc(CC(=O)Nc2nc3c(s2)CN([C@H](C)c2ccc(C(F)(F)F)cc2F)[C@H]3C(C)C)cc1 [I-A36]
> 7.00,< 6.00,,,CCS(=O)(=O)c1ccc(CC(=O)Nc2nc3c(s2)CN(C[C@@H]2CC[C@H](C(F)(F)F)N(C)C2)[C@H]3C(C)C)cc1 (relative stereo)
6.00 to 7.00,< 6.00,,,CCS(=O)(=O)c1ccc(CC(=O)Nc2nc3c(s2)CN(Cc2cccc(S(C)(=O)=O)c2)[C@@H]3C(C)C)cc1

pKi ([1]; Table 9),"pIC50 [2, 3]",pKi ([1]; Table 8),"pIC50 [2, 4]",Structure (SMILES)
> 7.00,< 6.00,,,CCS(=O)(=O)c1ccc(CC(=O)Nc2nc3c(s2)CN(Cc2ccc(N)nc2)[C@H]3C(C)C)cc1
> 7.00,> 7.00,,,CCS(=O)(=O)c1ccc(CC(=O)Nc2nc3c(s2)CN([C@H](C)c2c(F)cc(Cl)cc2F)[C@H]3C(C)C)cc1
> 7.00,< 6.00,,,CCS(=O)(=O)c1ccc(CC(=O)Nc2nc3c(s2)CN(Cc2ccc(OC(F)F)cc2)[C@@H]3C(C)C)cc1
> 7.00,< 6.00,,,"CCS(=O)(=O)c1ccc(CC(=O)Nc2nc3c(s2)CN(C[C@@H]2CC[C@H](C(F)(F)F)NC2)[C@H]3C(C)C)nc1 (single isomer, unassigned)"
> 7.00,6.00 to 7.00,,,CCS(=O)(=O)c1ccc(CC(=O)Nc2nc3c(s2)CN(Cc2ccc(C(F)(F)F)cn2)[C@H]3C(C)C)nc1
,,> 7.00,> 7.00,CC(C)[C@H]1c2nc(NC(=O)Cc3ccc(S(C)(=O)=O)cc3)sc2CN1[C@@H](C)c1ccc(C#N)c(F)c1 [I-B12]
> 7.00,6.00 to 7.00,,,CC(C)[C@H]1c2nc(NC(=O)Cc3ccc(S(C)(=O)=O)cc3)sc2CN1[C@H](C)c1cnc(Cl)cc1F
,,> 7.00,> 7.00,CCS(=O)(=O)c1ccc(CC(=O)Nc2nc3c(s2)CN(Cc2ccc(OC(F)(F)F)cc2)[C@H]3C(C)C)cc1 [I-A16]
> 7.00,< 6.00,,,CCS(=O)(=O)c1ccc(CC(=O)Nc2nc3c(s2)CN(c2nccc(C(F)(F)F)n2)C3(C)C)cc1
6.00 to 7.00,6.00 to 7.00,,,CCS(=O)(=O)c1ccc(CC(=O)Nc2nc3c(s2)CN(Cc2ccc(C#N)c(F)c2)[C@@H]3C(C)C)cc1
,,> 7.00,> 7.00,COC(=O)c1ccc(CN2Cc3sc(C(=O)NCc4ccc(S(C)(=O)=O)cc4)nc3[C@@H]2C(C)C)cc1 [I-K3]
> 7.00,< 6.00,,,CCS(=O)(=O)c1ccc(CC(=O)Nc2nc3c(s2)CN([C@H](C)Cc2ccccc2)[C@@H]3C(C)C)cc1
,,> 7.00,> 7.00,CCS(=O)(=O)c1ccc(CC(=O)Nc2nc3c(s2)CN(C[C@H]2CC[C@H](C(F)(F)F)N(C)C2)[C@H]3C(C)C)cc1 [I-A22]
> 7.00,< 6.00,,,CC(C)[C@H]1c2nc(NC(=O)Cc3ccc(S(C)(=O)=O)cc3)sc2CN1Cc1ccc(F)cc1
> 7.00,> 7.00,,,CCS(=O)(=O)c1ccc(CC(=O)Nc2nc3c(s2)CN(Cc2ccc(C#N)cc2)[C@H]3C(C)C)nc1 [drawing 230]
6.00 to 7.00,< 6.00,,,CC(C)[C@H]1c2nc(NC(=O)Cc3ccc(-c4nnnn4C)cc3)sc2CN1Cc1ccc(Cl)cc1
,,> 7.00,> 7.00,"CCS(=O)(=O)c1ccc(CNC(=O)c2nc3c(s2)CN(Cc2ccc(Cl)cc2)[C@H]3C(C)C)cc1 [I-J1, (S)-5-(4-chlorobenzyl)-N-(4-(ethylsulfonyl)benzyl)-4-isopropyl-5,6-dihydro-4H-pyrrolo[3,4-d]thiazole-2-carboxamide]"
> 7.00,6.00 to 7.00,,,CCS(=O)(=O)c1cnc(CC(=O)Nc2nc3c(s2)CN(Cc2ccc(C(F)(F)F)cc2)[C@H]3C(C)C)nc1
> 7.00,> 7.00,,,"CCS(=O)(=O)c1ccc(CC(=O)Nc2nc3c(s2)CN(C[C@H]2CC[C@H](C(F)(F)F)CC2)[C@H]3C(C)C)nc1 (single isomer, unassigned)"
> 7.00,< 6.00,,,CCS(=O)(=O)c1ccc(CC(=O)Nc2nc3c(s2)CN(Cc2cc(OC)cc(OC)c2)[C@@H]3C(C)C)cc1
,,> 7.00,> 7.00,"CCS(=O)(=O)c1ccc(CC(=O)Nc2nc3c(s2)CN(Cc2ccc(-c4ccn(C)c(=O)c4)cc2)[C@H]3C(C)C)cc1 [I-A18, (S)-2-(4-(ethylsulfonyl)phenyl)-N-(4-isopropyl-5-(4-(1-methyl-2-oxo-1,2-dihydropyridin-4-yl)benzyl)-5,6-dihydro-4H-pyrrolo[3,4-d]thiazol-2-yl)acetamide]"
,,> 7.00,> 7.00,CCS(=O)(=O)c1ccc(CC(=O)Nc2nc3c(s2)CN(C[C@H]2CC[C@H](OC(F)F)CC2)[C@H]3C(C)C)cc1 [I-A28]
> 7.00,> 7.00,,,"CC(C)[C@H]1c2nc(NC(=O)Cc3ccc(S(C)(=O)=O)cc3)sc2CN1[C@H](C)c1ccc(C(F)(F)F)nc1 (single isomer, unassigned)"
> 7.00,< 6.00,,,CCS(=O)(=O)c1ccc(CC(=O)Nc2nc3c(s2)CN(Cc2ccccc2)[C@@H]3C(C)C)cc1
> 7.00,> 7.00,,,"CCS(=O)(=O)c1ccc(CC(=O)Nc2nc3c(s2)CN(C[C@H]2CC[C@@](O)(C(F)(F)F)CC2)[C@H]3C(C)C)cc1 (single isomer, unassigned)"
> 7.00,< 6.00,,,"CCS(=O)(=O)c1ccc(CC(=O)Nc2nc3c(s2)CN(C[C@@H]2CCCOC2)[C@H]3C(C)C)cc1 (single isomer, unassigned)"
